Source: the NIST ThermoML archive (doi:10.1016/j.jct.2007.11.009)

Experiment: xn = mol fraction of the nth substance listed
Details: 328.15 K, Liquid, Vibrating tube method

CCCCCCCC [octane] + c1ccccc1
mass density [kg/m3]
Details	x1 = 0.1097	x1 = 0.2036	x1 = 0.2984	x1 = 0.4069	x1 = 0.5027	x1 = 0.5904	x1 = 0.6989	x1 = 0.7964	x1 = 0.904	x1 = 1
100 kPa	807.9	784.5	764.1	744.3	729.2	717	704	693.3	683	674.5
2130 kPa	810	786.7	766.2	746.5	731.4	719.1	706.1	695.5	685.1	676.6
4150 kPa	812.1	788.7	768.3	748.6	733.5	721.2	708.2	697.6	687.2	678.7
6180 kPa	814.1	790.8	770.4	750.7	735.6	723.3	710.3	699.7	689.2	680.7
8210 kPa	816.1	792.8	772.4	752.7	737.6	725.3	712.3	701.7	691.2	682.6
10230 kPa	818	794.7	774.4	754.7	739.6	727.3	714.3	703.7	693.2	684.6
11250 kPa	818.9	795.7	775.3	755.6	740.6	728.3	715.2	704.6	694.1	685.5
12260 kPa	819.9	796.6	776.3	756.6	741.5	729.2	716.2	705.6	695	686.4
14290 kPa	821.7	798.5	778.2	758.5	743.4	731.1	718.1	707.4	696.9	688.3
16310 kPa	823.6	800.4	780.1	760.4	745.3	733	719.9	709.3	698.7	690.1
18340 kPa	825.3	802.1	781.9	762.2	747.1	734.8	721.7	711.2	700.5	691.8
20370 kPa	827.1	803.9	783.6	763.9	748.9	736.6	723.4	713	702.2	693.6
22390 kPa	828.8	805.7	785.4	765.7	750.6	738.3	725.1	714.5	703.9	695.2
24420 kPa	830.5	807.4	787.1	767.4	752.3	740	726.8	716.2	705.6	696.9
26450 kPa	832.2	809.1	788.8	769.1	754	741.6	728.5	717.8	707.2	698.5
28470 kPa	833.8	810.7	790.4	770.7	755.6	743.2	730.1	719.4	708.8	700
29490 kPa	834.6	811.5	791.2	771.5	756.4	744	730.9	720.1	709.6	700.8
30500 kPa	835.4	812.3	792	772.3	757.2	744.8	731.7	720.9	710.3	701.6
32530 kPa	837	813.9	793.6	773.9	758.8	746.4	733.2	722.5	711.9	703
34550 kPa	838.5	815.5	795.2	775.4	760.3	747.9	734.7	724	713.4	704.5
36580 kPa	840	817	796.7	777	761.8	749.4	736.2	725.5	714.8	706
38600 kPa	841.5	818.5	798.2	778.4	763.3	750.9	737.7	726.9	716.2	707.4
39620 kPa	842.3	819.1	798.9	779.2	764	751.6	738.4	727.6	716.9	708.1
